Laboratory results taken from US20210315837A1, “CANNABINOIDS FOR THE TREATMENT OF GRAM-POSITIVE INFECTIONS INCLUDING ANTIBIOTIC-RESISTANT BACTERIAL STRAINS” (priority 2018, published 2021).
Values after ≈ are worked out from the molar mass of the structure shown. Values joined by “and” are separate entries in the source; they are usually repeats but may differ in a detail not shown here. Equal values may be shown once. Read-outs that look alike come from different tables or passages of the source.

Legend:
[1] = test system: MRS USA 300; assay: IC50, MIC and MBC against MRS USA 300; assay type: cell-based, Staphylococcus aureus
Protocol: (§1) As used herein, the term “minimum inhibitory concentration (MIC)” refers to the lowest concentration of an antimicrobial agent that will inhibit the visible growth of a microorganism after overnight incubation. MIC values against bacteria may be determined by standard methods. See also P. A. Wayne, Methods for Dilution Antimicrobial Tests for Bacteria that Grow Aerobically; Approved Standard, Ninth Edition, 2012, CLSI Document M07-A9, Vol. 32 No. 2, which is incorporated by reference herein in its entirety.

[2] = test system: MRS 1708 (Mupirocin-resistant); assay: IC50, MIC and MBC against MRS 1708 (Mupirocin-resistant); assay type: cell-based, Staphylococcus aureus; set-up: AMC: unit not given here
Protocol: as §1

[3] = test system: MRS 33591; assay: IC50, MIC and MBC against MRS 33591; assay type: cell-based, Staphylococcus aureus
Protocol: as §1

[4] = test system: MRS USA 400; assay: IC50, MIC and MBC against MRS USA 400; assay type: cell-based, Staphylococcus aureus
Protocol: as §1

[5] = test system: S. aureus 29213; assay: IC50, MIC and MBC against S. aureus 29213; assay type: cell-based
Protocol: As used herein, the term “minimum inhibitory concentration (MIC)” refers to the lowest concentration of an antimicrobial agent that will inhibit the visible growth of a microorganism after overnight incubation. MIC values against bacteria may be determined by standard methods.

[6] = MRS USA 300, tested Conc. in μg/mL
[7] = Mupirocin-resistant MRS (Table 11)
[8] = Mupirocin-resistant MRS (Table 11), in µg/mL
[9] = MRS 33591, tested Conc. in μg/mL
[10] = MRS USA 400, tested Conc. in μg/mL
[11] = S. aureus 29213, tested Conc. in μg/mL
[12] = S. aureus 29213, tested Conc. in μg/mL, NA given without definition
[13] = Staphylococcus aureus, S. aureus 29213, tested Conc. in μg/mL, read-out: MIC

Row | Molecule | IC50 [1, 6] | MIC [1, 6] | AMC [2, 7] | IC50 [2, 8] | IC50 [3, 9] | MIC [3, 9] | IC50 [4, 10] | MIC [4, 10] | MIC [5, 11] | IC50 [5, 12] | IC50 ([1]; Staphylococcus aureus, USA300) | IC50 ([2]; Staphylococcus aureus) | IC50 ([3]; Staphylococcus aureus) | MIC ([3]; Staphylococcus aureus) | IC50 ([4]; Staphylococcus aureus, USA400) | IC50 ([5]; Staphylococcus aureus, 29213) [µg/mL] | MBC [3, 9] | other results
1 | CCCCCc1cc(O)c(C/C=C(\C)CCC2OC2(C)C)c(O)c1 (stereo not drawn) [6,7-Epoxycannabigerol] | 7.53 | 20 ± 0 | 20 ± 0 | 7.74 ± 1.17 | 6.73 | 13.33 | 8.67 | 20 ± 0 | 16.67 | 5.83 | – | – | – | – | – | – | – | –
2 | CCCCCc1cc(O)c2c(c1)OC(C)(C)c1cc(O)c(C)cc1-2 [8-Hydroxycannabinol] | 1.58 | 5 ± 0 | – | 2.15 ± 0.22 | 2.33 | 5 ± 0 | 1.82 | 5 ± 0 | 5 ± 0 | 1.2 | – | – | – | – | – | – | – | –
3 | CC(C)=CCC/C(C)=C\Cc1c(O)cc(C)cc1O [(Z)-Cannabigerorcin] | 6.46 | 16.67 | – | 6.93 ± 1.54 | 9.48 | 20 ± 0 | 7.27 | 13.33 | 16.67 | 8.12 | – | – | – | – | – | – | – | –
4 | CCCCCc1cc(O)c2c(c1)OC(C)(CCC=C(C)C)C=C2 (stereo not drawn) [Cannabichromene] | – | – | – | – | – | – | – | – | – | – | 6.44 µg/mL | 5.04 ± 0.55 µg/mL | 2.58 µg/mL | 5 µg/mL | 7.28 µg/mL | 6.96 (≈ 22.1 µM) | – | –
5 | CC(C)=CCCC1(C)C=Cc2c(O)cc(C)cc2O1 (stereo not drawn) [Cannabichromeorcin] | 5.41 | 10 ± 0 | 13.33 ± 5.77 | 5.57 ± 0.27 | 5.56 | 10 ± 0 | 5.9 | 10 ± 0 | 10 ± 0 | 6.94 | – | – | – | – | – | – | 20 ± 0 | MBC [1, 6]: 13.33; MBC [4, 10]: 20 ± 0
6 | C=C(C)[C@@H]1CCC(C)=C[C@H]1c1c(O)cc(CCCCC)c(C(=O)O)c1O [Cannabidiolic acid] | – | 20 ± 0 | – | – | – | – | – | 13.33 | – | – | 6.11 µg/mL | 5.57 ± 0.68 µg/mL | 7.27 µg/mL | 20 µg/mL | 4.99 µg/mL | 6.83 (≈ 19.1 µM) | – | MIC [5, 13]: 16.7 µg/mL (≈ 46.5 µM)
7 | C=C(C)[C@@H]1CC[C@](C)(O)[C@H]2Oc3cc(CCCCC)cc(O)c3[C@@H]12 [Cannabielsoin] | 5.49 | 10 ± 0 | 20 ± 0 | 6.03 ± 0.49 | 6.26 | 10 ± 0 | 6.03 | 10 ± 0 | 10 ± 0 | 6.15 | – | – | – | – | – | – | – | MBC [1, 6]: 20 ± 0
8 | CCCCCc1cc(O)c(C/C=C(\C)CCC=C(C)C)c(O)c1C(=O)O [Cannabigerolic acid] | – | 8.33 | – | – | – | – | – | 5 ± 0 | – | – | 1.52 µg/mL | 1.55 ± 0.27 µg/mL | 2.29 µg/mL | 13.3 µg/mL | 1.67 µg/mL | 2.05 (≈ 5.69 µM) | – | MIC [5, 13]: 8.33 µg/mL (≈ 23.1 µM)
9 | O=C(O)c1cn(C2CC2)c2cc(N3CCNCC3)c(F)cc2c1=O [Ciprofloxacin, reference compound] | – | 0.5 ± 0 | – | – | – | – | – | – | – | – | 0.13 µg/mL | – | 0.12 µg/mL | 0.67 µg/mL | – | 0.12 (≈ 0.362 µM) | 0.67 | MBC [1, 6]: 0.67; MBC [5, 11]: 0.67; MIC ([5]; Staphylococcus aureus, 29213): 0.5 µg/mL (≈ 1.51 µM)
10 | COc1cccc(OC)c1C(=O)N[C@@H]1C(=O)N2[C@@H]1SC(C)(C)[C@@H]2C(=O)O [Methicillin, reference compound] | – | – | 25 ± 0 | – | – | – | – | 25 ± 0 | – | – | 70.2 µM and 26.7 µg/mL | 7.31 µM and 2.78 µg/mL | > 131000 nM | > 131 µM | 8.78 µM and 3.34 µg/mL | 0.65 (≈ 1.71 µM) | – | MBC ([1]; Staphylococcus aureus, USA300): > 131 µM; MIC ([1]; Staphylococcus aureus, USA300): > 131 µM; MBC ([2]; Staphylococcus aureus): 65.7 µM (≈ 25 µg/mL); MIC ([2]; Staphylococcus aureus): 65.7 µM (≈ 25 µg/mL); MBC ([3]; Staphylococcus aureus): > 131 µM; MBC [4, 10]: 41.67; MBC ([4]; Staphylococcus aureus, USA400): 110 ± 37.9 µM (≈ 41.7 µg/mL); MIC ([4]; Staphylococcus aureus, USA400): 65.7 µM (≈ 25 µg/mL); MIC ([5]; Staphylococcus aureus, 29213): 2.6 ± 0.9 µg/mL (≈ 6.83 µM)
11 | C/C(=C\C(=O)OCCCCCCCCC(=O)O)C[C@@H]1OC[C@H](C[C@@H]2O[C@H]2[C@@H](C)[C@H](C)O)[C@@H](O)[C@H]1O [Mupirocin, reference compound] | – | 0.23 | – | – | – | – | – | 0.16 ± 0 | – | – | 80 nM and 0.04 µg/mL | > 100000 nM | 80 nM and 0.04 µg/mL | 0.44 µM and 0.22 µg/mL | 80 nM and 0.04 µg/mL | 0.04 (≈ 0.0799 µM) | 2.08 | MBC ([1]; Staphylococcus aureus, USA300): 3.76 ± 1.76 µM (≈ 1.88 µg/mL); MIC ([1]; Staphylococcus aureus, USA300): 0.46 ± 0.22 µM (≈ 0.23 µg/mL); MBC ([2]; Staphylococcus aureus): > 100 µM; MIC ([2]; Staphylococcus aureus): > 100 µM; MBC ([3]; Staphylococcus aureus): 4.15 ± 2.6 µM (≈ 2.08 µg/mL); MBC [4, 10]: 0.94 ± 0.44; MBC ([4]; Staphylococcus aureus, USA400): 1.88 ± 0.88 µM (≈ 0.941 µg/mL); MIC ([4]; Staphylococcus aureus, USA400): 0.32 µM (≈ 0.16 µg/mL); MBC [5, 11]: 1.25 ± 0; MIC [5, 13]: 0.39 µg/mL (≈ 0.779 µM)
12 | CCCCCc1cc(O)c(CCC(C)CCCC(C)C)c(O)c1 (stereo not drawn) [Tetrahydro CBG, Tetrahydrocannabigerol] | 0.82 ± 0.1 | 2.08 | 3.33 ± 1.44 | 0.83 ± 0.2 | 0.67 ± 0 | 1.25 ± 0 | 1.12 | 2.5 ± 0 | 1.25 ± 0 | 0.7 | – | – | – | – | – | – | 3.75 | MBC ([1]; MRS USA 300): >62 µM; MIC ([1]; MRS USA 300): 6.49 ± 2.25 µM (≈ 2.08 µg/mL); IC50 ([1]; MRS USA 300, read-out: IC50): 2560 ± 310 nM; MBC ([2]; MRS 1708 (Mupirocin-resistant)): 10.39 ± 4.49 µM (≈ 3.33 µg/mL); MIC ([2]; MRS 1708 (Mupirocin-resistant)): 5.21 ± 2.25 µM (≈ 1.67 µg/mL); IC50 ([2]; MRS 1708 (Mupirocin-resistant), read-out: IC50): 2590 ± 620 nM; MBC ([3]; MRS 33591): 11.7 ± 5.52 µM (≈ 3.75 µg/mL); MIC ([3]; MRS 33591): 3.9 ± 0 µM; IC50 ([3]; MRS 33591, read-out: IC50): 2090 nM; MBC ([4]; MRS USA 400): 31.2 ± 0 µM (≈ 10 µg/mL); MIC ([4]; MRS USA 400): 7.8 ± 0 µM (≈ 2.5 µg/mL); IC50 ([4]; MRS USA 400, read-out: IC50): 3490 ± 500 nM; MBC [4, 10]: 10 ± 0
13 | CCCCCc1cc(O)c2c(c1)OC(C)(C)[C@@H]1CC=C(C)C[C@@H]21 [Δ8-Tetrahydrocannabinol] | 1.91 | 5 ± 0 | 10 ± 8.66 | 1.82 ± 0.08 | 1.43 | 2.5 ± 0 | 2.55 | 10 ± 0 | 2.5 ± 0 | 1.47 | – | – | – | – | – | – | 10 ± 0 | –
14 | Methyl tetrahydrocannabigerol | 1.76 and 1.26 | – | 8.33 ± 2.89 | – | 1.83 and 1.39 | – | 1.91 and 1.42 | – | – | 1.8 and 1.53 | – | – | – | – | – | – | – | MBC [5, 11]: 10 ± 0
15 | Tetrahydrocannabigerolic acid | 2.98 | 20 ± 0 | – | 3.24 ± 0.13 | 4.33 | 20 ± 0 | 2.79 | 13.33 | 20 ± 0 | 3.67 | – | – | – | – | – | – | – | –
